The text below walks through data of US20100009957A1, “NOVEL INHIBITORS OF BETA-LACTAMASE” (priority 2006, published 2010).

Molecules are shown by their SMILES. Where two headings read alike, the source gives them in different places. Some results are limits rather than exact numbers.

Experiment [1] deals with P. aeruginosa strain CL5701. The experiment can be described thus: Synergy assay (checkerboard) with imipenem. Type of experiment: cell-based, Pseudomonas aeruginosa. Particulars: for In Vitro 2X Synergy CL5701: concentration for 2X synergy with imipenem against P. aeruginosa strain CL5701; for In Vitro 8X Synergy CL5701: concentration for 8X synergy with imipenem against P. aeruginosa strain CL5701; for In Vitro 16X Synergy CL5701: concentration for 16X synergy with imipenem against P. aeruginosa strain CL5701. The text has this:
The assay determines the concentration of a β-lactamase inhibitor required to reduce the MIC of a β-lactam antibiotic by one-half, one-quarter, one-eighth, one-sixteenth and one-thirty-second against strains of bacteria normally resistant to the antibiotic in question. This is accomplished by titrating the BLI in a serial dilution across a microtiter plate while at the same time titrating the antibiotic in a serial dilution down the microtiter plate and then inoculating the plate with the bacterial strain in question and allowing the bacteria to grow up overnight. Each well in this microplate checkerboard contains a different combination of concentrations of the inhibitor and the antibiotic allowing a full determination of any synergy between the two.
• CL 5701 (Pseudomonas aeruginosa; Pa AmpC)/Imipenem • MB 2646 (Enterobacter cloacae; P99)/Ceftazidime • CL 5513 (Klebsiella pneumoniae; SHV-5)/Ceftazidime • CL 6188 (Acinetobacter baumanii; Oxa40)/Imipenem • CL 6569 (Klebsiella pneumoniae; KPC-2)/Imipenem • CL 5761 (Klebsiella pneumoniae; KPC-3)/Imipenem • CLB 21648 (Acinetobacter baumanii; Ab AmpC)/Imipenem
• 1. […] All wells in row A of MIC 2000 microtiter plates are filled with 100 μL of 2× MHBII+2% DMSO. • 3. […] 100 μL of 2× the final antibiotic concentration wanted is added to wells A2-A12 of the MIC 2000 plates. • 5. 100 μL is serially diluted from row A to row G of each MIC 2000 plate. • 6. 100 μL is removed from each well in row G of each MIC 2000 plate. • 7. 100 μL of 2× the final inhibitor concentration wanted (in MHBII+1% DMSO) is added to all wells in column 1 of the microtiter plates. • 8. 100 μL is serially diluted from column 1 to column 11 of each MIC 2000 plate. • 9. 100 μL is removed from each well in column 11 of each MIC 2000 plate. • 10. Plates are then inoculated with an overnight growth (in TSB) of the strain to be tested using an MIC 2000 inoculator. • 11. Plates are left at 37° C. for about 20 hours and scored for growth by eye.
Synergy may be expressed as a ratio of the minimum inhibitory concentration (MIC) of an antibiotic tested in the absence of a β-lactamase inhibitor to the MIC of the same antibiotic tested in the presence of the β-lactamase inhibitor. […] Alternatively, the synergy effect may be expressed as a factor, again, utilizing a concentration of the BLI to lower the MIC of the antibiotic.
Representative compounds of the present invention display a synergy effect. For example, the compounds of Examples 1 to 20 were determined to have 2× synergy concentrations in a range of from about 100 μM or less.

The next experiment addresses AmpC (P. aeruginosa.) (Pseudomonas aeruginosa, UniProt P24735). The experiment can be described thus: biochemical. As to conditions: nitrocefin substrate, pH 7. How it is done: The Class C enzyme activities were measured in the presence of the test inhibitor in spectrophotometric assay against the commercially available substrate, nitrocefin. The enzyme AmpC (P. aeruginosa.), and the substrate, were dissolved in 100 mM KH2PO4 buffer (pH 7). The buffer also contains 0.005% BSA. The test inhibitor was dissolved in DMSO and diluted 1:20 in the assay, resulting in a final concentration range of 50 μM to 0.0002 μM. In a 96-well microplate, the test inhibitor was incubated with the beta-lactamase enzyme for 40 minutes at ambient temperature, the substrate solution was added, and the incubation continued for another 40 minutes. The spectrophotomertric reaction was quenched by the addition of 2.5N acetic acid and the absorbance at 492 nm was measured. The IC50 value was determined from semi logarithmic plots of enzyme inhibition versus inhibitor concentration, with a curve generated using a 4-parameter fit.

[2] abbreviates: P. aeruginosa AmpC IC50, 40 min preincubation.
Where [3] appears, read: 40 min preincubation, read-out: P. aeruginosa AmpC IC50.

AmpC (P. aeruginosa.), sequence (P24735 27-397): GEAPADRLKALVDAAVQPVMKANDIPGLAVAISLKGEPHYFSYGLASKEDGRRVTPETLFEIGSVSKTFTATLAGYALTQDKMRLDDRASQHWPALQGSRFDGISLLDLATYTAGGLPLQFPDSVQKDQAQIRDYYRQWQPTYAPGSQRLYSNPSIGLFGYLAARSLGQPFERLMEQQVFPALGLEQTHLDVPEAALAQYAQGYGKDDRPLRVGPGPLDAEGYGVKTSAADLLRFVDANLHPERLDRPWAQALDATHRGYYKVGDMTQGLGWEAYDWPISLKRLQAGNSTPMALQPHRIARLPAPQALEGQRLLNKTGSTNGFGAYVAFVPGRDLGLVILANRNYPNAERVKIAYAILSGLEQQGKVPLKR

On to `O=C(NC1CCNCC1)N1CC[C@@H]2[C@H]1C(=O)N2S(=O)(=O)O` [Compound A, reference compound], for which, in experiment [1], the “In Vitro 2X Synergy CL5701” value was 3.7 µM, the “In Vitro 8X Synergy CL5701” value came out at 21 µM and the “In Vitro 16X Synergy CL5701” value stood at 67 µM. In addition, the IC50 (commonly the concentration needed to halve the response being measured) against AmpC (P. aeruginosa.) (setting [2]) is 6.8 µM.
Regarding `O=C(NC1CCCCNCC1)N1CC[C@@H]2[C@H]1C(=O)N2S(=O)(=O)O` (single isomer, unassigned; isomer a) [Example 17], in experiment [1], the “In Vitro 2X Synergy CL5701” value was determined as 3.1 µM, the “In Vitro 8X Synergy CL5701” value was determined as 12.5 µM and the “In Vitro 16X Synergy CL5701” value turned out to be 50 µM. The compound further yielded an IC50 on AmpC (P. aeruginosa.) (setting [2]) of 1.3 µM.
Regarding `O=C(NC1CCCCCC1)N1CC[C@@H]2[C@H]1C(=O)N2S(=O)(=O)O` [Example 3], in experiment [1], the “In Vitro 2X Synergy CL5701” value amounted to 100 µM, the “In Vitro 8X Synergy CL5701” value was greater than 100 µM and the “In Vitro 16X Synergy CL5701” value is greater than 100 µM. In addition, the IC50 against AmpC (P. aeruginosa.) (setting [2]) is 0.4 µM.
As for `O=C(N[C@H]1CNCCOC1)N1CC[C@@H]2[C@H]1C(=O)N2S(=O)(=O)O` [Example 8, (1S,5R)-2-{[(6S)-1,4-Oxazepan-6-ylamino]carbonyl}-7-oxo-2,6-diazabicyclo[3.2.0]heptane-6-sulfonic acid], in experiment [1], the “In Vitro 2X Synergy CL5701” value worked out at 6.3 µM, the “In Vitro 8X Synergy CL5701” value was found to be 50 µM and the “In Vitro 16X Synergy CL5701” value worked out at 100 µM. The IC50 on AmpC (P. aeruginosa.) (setting [3]) was found to be 1.1 µM.
Take `O=C(N[C@H]1CCCNCC1)N1CC[C@@H]2[C@H]1C(=O)N2S(=O)(=O)O` [Example 1]: in experiment [1], the “In Vitro 2X Synergy CL5701” value came out at 2.3 µM and the “In Vitro 16X Synergy CL5701” value is 25 µM. Moreover, the IC50 on AmpC (P. aeruginosa.) (setting [3]) was found to be 1.2 µM.
With `O=C(N[C@@H]1CCCNCC1)N1CC[C@@H]2[C@H]1C(=O)N2S(=O)(=O)O` [Example 2], in experiment [1], the “In Vitro 2X Synergy CL5701” value stood at 3.1 µM, the “In Vitro 8X Synergy CL5701” value was 25 µM and the “In Vitro 16X Synergy CL5701” value amounted to 100 µM. For the same compound, the 50% inhibitory concentration (IC50) at AmpC (P. aeruginosa.) (setting [3]) turned out to be 4 µM.
In the case of `O=C(NC1CCCCNCC1)N1CC[C@@H]2[C@H]1C(=O)N2S(=O)(=O)O` (single isomer, unassigned; isomer b) [Example 18], in experiment [1], the “In Vitro 2X Synergy CL5701” value turned out to be 12.5 µM, the “In Vitro 8X Synergy CL5701” value is greater than 100 µM and the “In Vitro 16X Synergy CL5701” value was greater than 100 µM. For the same compound, on AmpC (P. aeruginosa.) (setting [2]), the midpoint of inhibition, the IC50, lay at 25 µM.
For the compound `O=C(N[C@@H]1CNCCOC1)N1CC[C@@H]2[C@H]1C(=O)N2S(=O)(=O)O` [Example 7, (1S,5R)-2-{[(6R)-1,4-Oxazepan-6-ylamino]carbonyl}-7-oxo-2,6-diazabicyclo[3.2.0]heptane-6-sulfonic acid], in experiment [1], the “In Vitro 2X Synergy CL5701” value was 6.3 µM, the “In Vitro 8X Synergy CL5701” value was determined as 25 µM and the “In Vitro 16X Synergy CL5701” value is 100 µM. In addition, the IC50 at AmpC (P. aeruginosa.) (setting [3]) worked out at 0.6 µM.
